Test results reported in patent publication US7238681B2, “2-Methylene-18,19-dinor-1α-hydroxy-homopregnacalciferol and its uses” (Wisconsin Alumni Research Foundation, priority 2004, dated 2007).
“Also recorded” adds a separate entry of the source.

Columns and labels:
Sprague-Dawley rats [1] = assay: Intestinal calcium transport, everted gut sac method, in vitamin D-deficient rats; type: in vivo, rat
Protocol: (§1) Male, weanling Sprague-Dawley rats were placed on Diet 11 (0.47% Ca) diet+AEK for one week followed by Diet 11 (0.02% Ca)+AEK for 3 weeks. The rats were then switched to a diet containing 0.47% Ca for one week followed by two weeks on a diet containing 0.02% Ca. Dose administration began during the last week on 0.02% calcium diet. Four consecutive ip doses were given approximately 24 hours apart. Twenty-four hours after the last dose, blood was collected from the severed neck and the concentration of serum calcium determined as a measure of bone calcium mobilization. The first 10 cm of the intestine was also collected for intestinal calcium transport analysis using the everted gut sac method.

Sprague-Dawley rats [2] = assay: Bone calcium mobilization (serum calcium) in vitamin D-deficient rats; type: in vivo, rat; details: for bone calcium mobilization activity (serum calcium): vitamin D-deficient rats, low calcium diet (0.02%), four consecutive ip doses, FIG. 4
Protocol: as §1

[3] = system: 24-hydroxylase (24Ohase) gene promoter in ROS 17/2.8 (bone) cells; assay: In vitro transcription assay (24-hydroxylase gene promoter, luciferase reporter); type: cell-based; details: FIG. 3; for EC50: ROS 17/2.8 cells, 16 hours after dosing, read-out: EC50, transcriptional activity in bone cells
Protocol: Transcription activity was measured in ROS 17/2.8 (bone) cells that were stably transfected with a 24-hydroxylase (24Ohase) gene promoter upstream of a luciferase reporter gene (Arbour et al., 1998). Cells were given a range of doses. Sixteen hours after dosing the cells were harvested and luciferase activities were measured using a luminometer. • RLU=relative luciferase units. Intestinal Calcium Transport and Bone Calcium Mobilization

[4] = system: Human promyelocytic leukemia (HL60) cells; assay: HL-60 differentiation (nitro blue tetrazolium reduction assay); type: cell-based; details: FIG. 2; for EC50: HL60 cells, four days
Protocol: The study drugs were dissolved in ethanol and the concentrations determined using UV spectrophotometry. Serial dilutions were prepared so that a range of drug concentrations could be tested without changing the final concentration of ethanol (≦0.2%) present in the cell cultures.
Human promyelocytic leukemia (HL60) cells were grown in RPMI-1640 medium containing 10% fetal bovine serum. The cells were incubated at 37° C. in the presence of 5% CO2.
HL60 cells were plated at 1.2×10^5 cells/ml. Eighteen hours after plating, cells in duplicate were treated with drug. Four days later, the cells were harvested and a nitro blue tetrazolium reduction assay was performed (Collins et al., 1979; J. Exp. Med. 149:969–974). The percentage of differentiated cells was determined by counting a total of 200 cells and recording the number that contained intracellular black-blue formazan deposits. Verification of differentiation to monocytic cells was determined by measuring phagocytic activity (data not shown).

[5] = biological target: T1, full-length recombinant rat vitamin D receptor (Rattus norvegicus, UniProt P13053); assay: Vitamin D receptor binding, competition with [3H]-1,25(OH)2D3; details: FIG. 1
T1 construct: Full-length recombinant rat receptor was expressed in E. coli BL21 (DE3) Codon Plus RIL cells; histidine tag (C); made in house; host or cells: E. coli BL21 (DE3) Codon Plus RIL
T1 sequence (P13053 1-423): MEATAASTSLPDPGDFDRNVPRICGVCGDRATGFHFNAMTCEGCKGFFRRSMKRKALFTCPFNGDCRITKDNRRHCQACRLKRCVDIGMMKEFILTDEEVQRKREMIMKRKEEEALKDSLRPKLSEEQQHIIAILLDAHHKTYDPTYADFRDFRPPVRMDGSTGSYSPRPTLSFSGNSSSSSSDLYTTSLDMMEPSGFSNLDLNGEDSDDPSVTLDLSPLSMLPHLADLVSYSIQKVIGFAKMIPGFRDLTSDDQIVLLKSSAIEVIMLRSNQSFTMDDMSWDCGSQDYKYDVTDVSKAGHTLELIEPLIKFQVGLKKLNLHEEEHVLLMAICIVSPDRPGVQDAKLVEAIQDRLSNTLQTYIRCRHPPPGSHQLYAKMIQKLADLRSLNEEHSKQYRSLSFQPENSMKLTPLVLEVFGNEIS
Protocol: Full-length recombinant rat receptor was expressed in E. coli BL21 (DE3) Codon Plus RIL cells and purified to homogeneity using two different column chromatography systems. The first system was a nickel affinity resin that utilizes the C-terminal histidine tag on this protein. The protein that was eluted from this resin was further purified using ion exchange chromatography (S-Sepharose Fast Flow). Aliquots of the purified protein were quick frozen in liquid nitrogen and stored at −80° C. until use. For use in binding assays, the protein was diluted in TEDK50 (50 mM Tris, 1.5 mM EDTA, pH7.4, 5 mM DTT, 150 mM KCl) with 0.1% Chaps detergent. The receptor protein and ligand concentration were optimized such that no more than 20% of the added radiolabeled ligand was bound to the receptor.
Radiolabeled and unlabeled ligands were added to 100 mcl of the diluted protein at a final ethanol concentration of ≦10%, mixed and incubated overnight on ice to reach binding equilibrium. The following day, 100 mcl of hydroxylapatite slurry (50%) was added to each tube and mixed at 10-minute intervals for 30 minutes. The hydroxylapaptite was collected by centrifugation and then washed three times with Tris-EDTA buffer (50 mM Tris, 1.5 mM EDTA, pH 7.4) containing 0.5% Titron X-100. […] Total binding was determined from the tubes containing only radiolabeled ligand.

Row | EC50 ([4]; Homo sapiens, HL-60, 96 h) [nM] | Ki ([5]; full-length recombinant rat VDR) [nM] | binding to the receptor as compared to the standard 1,25-(OH)2D3 ([5]; relative to 1,25-(OH)2D3) | Compound | intestinal calcium transport (Sprague-Dawley rats [1]; 2340 pmol/day) | bone calcium mobilization activity (serum calcium) (Sprague-Dawley rats [2]) | EC50 [3] [nM] | EC50 [4] [nM] | intestinal calcium transport (Sprague-Dawley rats [1]; 780 pmol/day) | bone calcium mobilization (Sprague-Dawley rats [2]; 780 pmol/day for 4 consecutive days) | bone calcium mobilization (Sprague-Dawley rats [2]; 2340 pmol/day) | bone calcium mobilization (Sprague-Dawley rats [2]; 7020 pmol/day) | transcriptional activity relative to 1α,25-dihydroxyvitamin D3 in bone cells [3] | potency on HL-60 cell differentiation compared with 1,25(OH)2D3 [4] | intestinal calcium transport (Sprague-Dawley rats [1]; 7020 pmol/day) | intestinal calcium transport activity (Sprague-Dawley rats [1]; vitamin D-deficient rats, low calcium diet (0.02%), four consecutive ip doses, FIG. 5)
1 |  |  |  | 2-methylene-19-nor-1α-hydroxy-homopregnacalciferol [Compound 2MP, reference compound] | significant increase |  |  |  |  |  |  |  |  |  |  | 
2 |  |  |  | C=C1/C(=C\C=C2/CCC[C@]3(C)[C@@H]([C@H](C)CCCC(C)(C)O)CC[C@@H]23)C[C@@H](O)C[C@@H]1O [1,25(OH)2D3, 1α,25-dihydroxyvitamin D3, reference compound] |  | increased serum calcium levels at all dosages | 3.2 | 3.2 | significant increase |  |  |  |  |  |  | 
3 | 15 | 0.22 | one-fifth as well | C=C1[C@H](O)CC(=C/C=C2\CCC[C@@H]3[C@@H](C(C)C)CC[C@@H]23)C[C@H]1O [18,19-dinor-2MP, 2-methylene-18,19-dinor-1α-hydroxy-homopregnacalciferol] | does not promote intestinal calcium transport | no measurable bone calcium mobilization activity; also recorded: little, if any, activity in mobilizing calcium from bone | 15 |  | does not promote intestinal calcium transport | did not result in mobilization of bone calcium | without any substantial effect | without any substantial effect | one-tenth | almost as potent as 1,25(OH)2D3 | does not promote intestinal calcium transport | no measurable activity; also recorded: essentially devoid of intestinal calcium transport activity
